In patent publication US20240360179A1, “STAPLED PEPTIDES AND METHODS THEREOF” (FOG PHARMACEUTICALS, INC., priority 2021, published 2024):
pIC50: −log10 of the molar value. Where two headings read alike, the source gives them in different places.

Legend:
[1] = biological target: T1, beta-catenin/TCF4 interaction (Homo sapiens, UniProt P35222); type: cell-based; details: read-out: NanoBRET Abs IC50
T1 construct: host or cells: HEK293
T1 sequence (P35222 1-781): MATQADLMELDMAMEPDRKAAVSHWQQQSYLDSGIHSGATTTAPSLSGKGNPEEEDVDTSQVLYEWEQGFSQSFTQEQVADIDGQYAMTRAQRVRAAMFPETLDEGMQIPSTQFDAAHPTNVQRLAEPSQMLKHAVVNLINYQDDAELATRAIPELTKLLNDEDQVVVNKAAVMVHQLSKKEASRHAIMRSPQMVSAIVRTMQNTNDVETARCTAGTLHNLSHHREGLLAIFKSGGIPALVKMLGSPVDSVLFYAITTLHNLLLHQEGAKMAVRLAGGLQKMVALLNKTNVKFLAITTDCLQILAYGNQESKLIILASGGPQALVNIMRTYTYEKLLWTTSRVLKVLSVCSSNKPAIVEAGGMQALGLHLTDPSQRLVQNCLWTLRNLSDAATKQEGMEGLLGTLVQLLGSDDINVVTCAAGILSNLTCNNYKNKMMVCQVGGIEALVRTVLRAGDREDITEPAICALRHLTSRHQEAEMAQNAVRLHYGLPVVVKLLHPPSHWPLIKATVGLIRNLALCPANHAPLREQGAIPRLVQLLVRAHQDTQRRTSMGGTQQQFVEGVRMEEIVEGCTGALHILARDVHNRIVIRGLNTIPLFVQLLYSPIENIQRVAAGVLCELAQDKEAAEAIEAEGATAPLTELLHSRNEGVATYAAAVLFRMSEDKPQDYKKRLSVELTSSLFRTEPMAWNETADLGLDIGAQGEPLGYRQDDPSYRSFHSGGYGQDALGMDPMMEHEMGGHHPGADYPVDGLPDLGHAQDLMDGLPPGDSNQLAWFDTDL

[2] = tested on: beta-catenin driven transcription in HAP1 WT cells; test: qPCR of beta-catenin driven transcription in HAP1 WT cells (CHIR treated); type: cell-based; details: 24-hour treatment
[3] = tested on: HAP1 CTNNB1 knockout cells; test: qPCR in HAP1 beta-catenin KO cells; type: cell-based
[4] = biological target: T2, full-length B-Catenin (Uniprot ID P35222) (Homo sapiens, UniProt P35222); type: binding
T2 construct: 10 nM full-length B-Catenin (Uniprot ID P35222)
T2 sequence (P35222 1-781): T1 sequence (P35222 1-781)

[5] = biological target: T3, TCF/LEF luciferase reporter in DLD1 cells (Homo sapiens, UniProt P35222); test: TCF reporter assay in DLD1 cells (4% or 20% FBS); type: cell-based
T3 sequence (P35222 2-781): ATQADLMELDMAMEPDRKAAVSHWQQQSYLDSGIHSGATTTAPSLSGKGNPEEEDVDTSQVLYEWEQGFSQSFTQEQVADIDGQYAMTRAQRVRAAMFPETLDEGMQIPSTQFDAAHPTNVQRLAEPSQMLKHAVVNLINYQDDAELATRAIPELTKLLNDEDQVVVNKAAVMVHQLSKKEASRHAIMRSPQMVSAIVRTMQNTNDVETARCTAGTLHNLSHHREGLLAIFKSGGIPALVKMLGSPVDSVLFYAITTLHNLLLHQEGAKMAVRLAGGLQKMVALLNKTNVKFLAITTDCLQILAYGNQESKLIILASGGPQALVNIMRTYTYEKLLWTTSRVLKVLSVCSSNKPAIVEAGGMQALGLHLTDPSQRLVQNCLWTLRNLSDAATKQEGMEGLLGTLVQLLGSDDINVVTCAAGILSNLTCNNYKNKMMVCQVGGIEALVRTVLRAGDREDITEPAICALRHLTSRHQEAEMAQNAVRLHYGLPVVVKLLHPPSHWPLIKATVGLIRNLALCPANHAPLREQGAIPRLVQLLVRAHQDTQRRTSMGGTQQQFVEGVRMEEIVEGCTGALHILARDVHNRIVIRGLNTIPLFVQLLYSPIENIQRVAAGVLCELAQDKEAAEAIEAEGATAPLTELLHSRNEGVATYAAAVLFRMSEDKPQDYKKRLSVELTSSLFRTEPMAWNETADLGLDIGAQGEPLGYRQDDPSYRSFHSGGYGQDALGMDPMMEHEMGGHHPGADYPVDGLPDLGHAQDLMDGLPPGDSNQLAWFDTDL

[6] = tested on: COLO320DM cells; test: COLO320DM proliferation assay (CellTiter-Glo); type: cell-based, human; details: read-out: COLO320DM Proliferation Abs IC50
Procedure, shortened: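 COLO320DM cells, 250 cells/well in RPMI-1640 with 4% FBS, attached 18-22 h, then exposed 96 h at 37 °C, 5% CO2 to 7-point 1/2 dilutions from 20 uM to 313 nM. Viability by CellTiter-Glo luminescence; IC50 derived from the dose curve.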

[7] = read-out: DLD1 4% Abs IC50, DLD1 TCF reporter, 4% FBS
[8] = read-out: beta-catenin TCF4 competition FP assay IC50
[9] = read-out: beta-catenin TCF4 DLD1 cell reporter assay IC50

Compound | pIC50 [5, 7] | other results
5hexenyl-MePro-Asp-AllylGly-R5-Asp-3COOHF-Aib-Ala-Phe-Lys*3-PyrS2-3Thi-BztA-GlnR*3-Ala-NH2 [I-430] |  | pIC50 [1]: < 5.00
Cc1c[nH]c(-c2cnc(NCCNc3ccc(C#N)cn3)nc2-c2ccc(Cl)cc2Cl)n1 [CHIR, CHIR99021, reference compound] |  | beta-catenin protein levels [2]: more than two-fold; expression of AXIN2, SP5, or RNF43 [3]: neither CHIR nor peptide A and I-66 affected
Ac-PL3-Asp-Npg-B5-Asp-3COOHF-Aib-Ala-Phe-Lys*3-PyrS2-2F3MeF-BztA-GlnR*3-Ala-NH2 [I-69] | ≥ 6.00 | pIC50 ([4]; read-out: beta-Catenin FP IC50): > 7.30; pIC50 [6]: ≥ 5.00
Ac-PL3-Asp-Npg-B5-Asp-3COOHF-Aib-Ala-Phe-Lys*3-PyrS2-2F3MeF-BztA-GlnR*3-Leu-Ser-NH2 [I-138] | ≥ 6.00 | pIC50 [6]: ≥ 5.00
Ac-PL3-Asp-Npg-B5-Asp-3COOHF-Aib-Ala-Phe-TriAzLys*3-PyrS2-3Thi-BztA-sCH2S*3-Ala-NH2 [I-262] | ≥ 6.00 | pIC50 [6]: ≥ 5.00
Ac-PL3-Asp-Npg-B5-Asp-3COOHF-Aib-Ala-Phe-[2_6-naph]Cys-PyrS2-3Thi-BztA-Cys-Ala-NH2 [I-566] |  | pIC50 [4, 8]: 7.24; pIC50 [5, 9]: < 4.70
Ac-PL3-Asp-Npg-B5-Asp-3COOHF-Aib-Ala-Phe-[3_3-biph]Cys-PyrS2-3Thi-BztA-Cys-Ala-NH2 [I-567] |  | pIC50 [4, 8]: 6.92; pIC50 [5, 9]: < 4.70
Ac-PL3-Asp-Npg-B5-Asp-3COOHF-Ala-Aib-Phe-Lys*3-PyrS2-3Thi-BztA-GlnR*3-Ala-NH2 [I-442] |  | pIC50 [1]: < 5.00
Ac-PL3-Asp-Npg-B5-Asp-3COOHF-Ala-Ala-Phe-Lys*3-PyrS2-3Thi-BztA-GlnR*3-Prool [I-64] | 5.30 to 6.00 | pIC50 [6]: 4.70 to 5.00
Ac-PL3-Asp-Npg-B5-Asp-3COOHF-Ala-Ala-Phe-sAla*3-PyrS2-3Thi-BztA-TriAzLys*3-NH2 [I-24] | 5.30 to 6.00 | 
Ac-PL3-Asp-Npg-B5-Asp-3COOHF-Cbg-Ala-Phe-Lys*3-PyrS2-2F3MeF-BztA-GlnR*3-Leu-Ser-NH2 [I-140] | ≥ 6.00 | 
Ac-PL3-Asp-Npg-B5-Asp-3COOHF-Cpg-Ala-Phe-Lys*3-PyrS2-2F3MeF-BztA-GlnR*3-Leu-Ser-NH2 [I-139] | ≥ 6.00 | 
Ac-PL3-Asp-Npg-B5-Asp-3COOHF-CyLeu-Ala-Phe-Lys*3-PyrS2-2F3MeF-BztA-GlnR*3-Leu-Ser-NH2 [I-141] | ≥ 6.00 | 
Ac-PL3-Asp-Npg-B5-Asp-3COOHF-Npg-Ala-Phe-Lys*3-PyrS2-2F3MeF-BztA-GlnR*3-Ala-NH2 [I-99] | ≥ 6.00 | 
Ac-PL3-Asp-Npg-B5-Asp-3COOHF-Npg-Ala-Phe-Lys*3-PyrS2-2F3MeF-BztA-GlnR*3-Leu-NH2 [I-109] | 5.30 to 6.00 | pIC50 [1]: < 5.00
Ac-PL3-Asp-Npg-B5-Asp-3COOHF-nLeu-Ala-Phe-Lys*3-PyrS2-3Thi-BztA-GlnR*3-Ala-NH2 [I-70] | ≥ 6.00 | pIC50 [6]: ≥ 5.00
Ac-PL3-Asp-Npg-B5-Asp-TfeGA-Ala-Ala-Phe-Lys*3-PyrS2-2F3MeF-BztA-GlnR*3-Leu-NH2 [I-128] | 5.30 to 6.00 | 
Ac-PL3-Asp-Npg-B5-Asp-TfeGA-Ala-Ala-Phe-Lys*3-PyrS2-2F3MeF-BztA-GlnR*3-Val-NH2 [I-129] | 5.30 to 6.00 | 
Ac-PL3-Glu-Npg-B5-Glu-3COOHF-Aib-Ala-Phe-Lys*3-PyrS2-2F3MeF-BztA-GlnR*3-Ala-NH2 [I-291] | 5.30 to 6.00 | 
Ac-PL3-aThr-Npg-B5-Asp-3COOHF-Aib-Ala-Phe-Lys*3-PyrS2-3Thi-BztA-GlnR*3-Ala-NH2 [I-163] | < 5.30 | 
